According to patent US9212140B2, “(5s,8s)-3-(4′-chlor-3′-fluor-4-methlybiphenyl-3-yl)-4-hydroxy-8-methoxy-1-azaspiro[4.5] dec-3-en-2-one (compound A) for treatment” (Bayer Intellectual Property GmbH, priority 2011, dated 2015):
Values belong to the compound of their own block, whether it stands above or below them.

Legend:
[1] = tested on: human MCF-7 cells; test: MCF-7 breast cancer xenograft model; type: in vivo, female nude mice (NMRI nu/nu); settings: for T/C (based on tumour area) / T/C (based on tumour weight): 30 days, once per day
Method: Xenograft models in immunosuppressed mice were used to determine the antitumour activity in living organisms.
Various xenograft models in which the test substances were administered in their MTD and in lower doses were then used to determine the antitumour activity. In addition to various other models, use was made primarily of the breast cancer model with hormone-dependent human MCF-7 cells in female nude mice (NMRI-nude (nu/nu) mice, Taconic M&B A/S). To this end, on the day prior to the implantation of the tumour cells, a pellet for releasing oestrogen (17β-oestradiol 0.36 mg, release over 60 days) was administered subcutaneously to the mice. The next day, 2 million tumour cells (suspended in medium+Matrigel) 1:1, final 0.1 ml) were then injected subcutaneously into the side of each animal. When the tumours extended to an area of 20-25 mm^2, the mice were randomized into therapy groups and therapy was initiated. The therapy was then continued until an average tumour size of 120 mm^2 had been reached in the control group, which had only been given the vehicle of the test substance, or in one of the treatment groups, with tumour area and body weight being measured 2-3 times per week. At this point in time, the experiment was terminated in all groups and the excised tumours were weighed.
The T/C value was calculated as primary success parameter either using the effect on the tumour weight or using the effect on the tumour area: mean tumour weight/area in the treatment group divided by mean of the tumour weight/area in the vehicle group.
Comparative Example C.1 was subsequently administered to female nude mice (NMRI nu/nu) in the MCF-7 breast cancer xenograft model: • Dose: 7.5 mg/kg • Mode of administration: oral • Vehicle: PEG400/ethanol/Solutol HS 15(70/5/25, v/v/v) • Administration volume: 10 ml/kg • Scheme: 27 days, 2 times per day (2 qd) • Mice: 10
Compound A was subsequently administered to female nude mice (NMRI nu/nu) in the MCF-7 breast cancer xenograft model: • Dose: see Tab. 5 • Mode of administration: oral • Vehicle: PEG400/ethanol/Solutol HS 15(70/5/25, v/v/v) • Administration volume: 10 ml/kg • Scheme: 30 days, once per day (qd) • Mice per dose group: 10-13
For the statistical evaluation of the experiment, the non-parametric ANOVA test was used for the T/C values based on the tumour area, since there was no normal distribution of the measured values. All therapy groups were then compared to the vehicle group using Dunns Post test. The resulting p values are shown in the table (ns: not significant=p>0.05). Since there was a normal distribution of the T/C values based on tumour weight, the ANOVA test for parametric values was used for analysis. All therapy groups were then compared to the vehicle group using the Bonferroni Post test.

[2] = Maximum tolerated dose (MTD) determination, oral; type: in vivo, female nude mice (NMRI nu/nu); settings: for MTD at 21 days: 21-day treatment with 1 administration per day
Method: To this end, initially the maximum tolerable dose (MTD) was determined using the following protocol:
Over a period of 1, 2 or 3 weeks, a defined dose of the test substance was administered orally to female nude mice (NMRI-nude (nu/nu) mice, Taconic M&B A/S), and the mice were observed daily for mortality and body weight. The MTD was defined as the highest dose which could be administered without any animal dying during the treatment phase and the 7-day additional observation phase, and without any body weight loss of more than 10% compared to the initial weight.
Comparative Example C.1 was administered to female nude mice (NMRI nu/nu): • Dose: see Tab. 3 • Mode of administration: oral • Vehicle: PEG400/ethanol/Solutol HS 15(70/5/25, v/v/v) • (Solutol HS15: polyoxyethylene ester of 12-hydroxystearic acid) • Administration volume: 10 ml/kg • Scheme: see Tab. 3
The treatment phase was followed by an observation phase of 7 days.
Compound A was administered to female nude mice (NMRI nu/nu): • Dose: see Tab. 4 • Mode of administration: oral • Vehicle: PEG400/ethanol/Solutol HS 15(70/5/25, v/v/v) • Administration volume: 10 ml/kg • Scheme: see Tab. 4

[3] = molecular target: T1, ACC2 (Homo sapiens (Human), UniProt O00763); test: Human ACC2 enzyme assay B2 (ADP-Glo); type: biochemical; settings: read-out: ACC 2 (=B2) IC50
Target sequence in this assay (O00763 27-2458 limits assumed): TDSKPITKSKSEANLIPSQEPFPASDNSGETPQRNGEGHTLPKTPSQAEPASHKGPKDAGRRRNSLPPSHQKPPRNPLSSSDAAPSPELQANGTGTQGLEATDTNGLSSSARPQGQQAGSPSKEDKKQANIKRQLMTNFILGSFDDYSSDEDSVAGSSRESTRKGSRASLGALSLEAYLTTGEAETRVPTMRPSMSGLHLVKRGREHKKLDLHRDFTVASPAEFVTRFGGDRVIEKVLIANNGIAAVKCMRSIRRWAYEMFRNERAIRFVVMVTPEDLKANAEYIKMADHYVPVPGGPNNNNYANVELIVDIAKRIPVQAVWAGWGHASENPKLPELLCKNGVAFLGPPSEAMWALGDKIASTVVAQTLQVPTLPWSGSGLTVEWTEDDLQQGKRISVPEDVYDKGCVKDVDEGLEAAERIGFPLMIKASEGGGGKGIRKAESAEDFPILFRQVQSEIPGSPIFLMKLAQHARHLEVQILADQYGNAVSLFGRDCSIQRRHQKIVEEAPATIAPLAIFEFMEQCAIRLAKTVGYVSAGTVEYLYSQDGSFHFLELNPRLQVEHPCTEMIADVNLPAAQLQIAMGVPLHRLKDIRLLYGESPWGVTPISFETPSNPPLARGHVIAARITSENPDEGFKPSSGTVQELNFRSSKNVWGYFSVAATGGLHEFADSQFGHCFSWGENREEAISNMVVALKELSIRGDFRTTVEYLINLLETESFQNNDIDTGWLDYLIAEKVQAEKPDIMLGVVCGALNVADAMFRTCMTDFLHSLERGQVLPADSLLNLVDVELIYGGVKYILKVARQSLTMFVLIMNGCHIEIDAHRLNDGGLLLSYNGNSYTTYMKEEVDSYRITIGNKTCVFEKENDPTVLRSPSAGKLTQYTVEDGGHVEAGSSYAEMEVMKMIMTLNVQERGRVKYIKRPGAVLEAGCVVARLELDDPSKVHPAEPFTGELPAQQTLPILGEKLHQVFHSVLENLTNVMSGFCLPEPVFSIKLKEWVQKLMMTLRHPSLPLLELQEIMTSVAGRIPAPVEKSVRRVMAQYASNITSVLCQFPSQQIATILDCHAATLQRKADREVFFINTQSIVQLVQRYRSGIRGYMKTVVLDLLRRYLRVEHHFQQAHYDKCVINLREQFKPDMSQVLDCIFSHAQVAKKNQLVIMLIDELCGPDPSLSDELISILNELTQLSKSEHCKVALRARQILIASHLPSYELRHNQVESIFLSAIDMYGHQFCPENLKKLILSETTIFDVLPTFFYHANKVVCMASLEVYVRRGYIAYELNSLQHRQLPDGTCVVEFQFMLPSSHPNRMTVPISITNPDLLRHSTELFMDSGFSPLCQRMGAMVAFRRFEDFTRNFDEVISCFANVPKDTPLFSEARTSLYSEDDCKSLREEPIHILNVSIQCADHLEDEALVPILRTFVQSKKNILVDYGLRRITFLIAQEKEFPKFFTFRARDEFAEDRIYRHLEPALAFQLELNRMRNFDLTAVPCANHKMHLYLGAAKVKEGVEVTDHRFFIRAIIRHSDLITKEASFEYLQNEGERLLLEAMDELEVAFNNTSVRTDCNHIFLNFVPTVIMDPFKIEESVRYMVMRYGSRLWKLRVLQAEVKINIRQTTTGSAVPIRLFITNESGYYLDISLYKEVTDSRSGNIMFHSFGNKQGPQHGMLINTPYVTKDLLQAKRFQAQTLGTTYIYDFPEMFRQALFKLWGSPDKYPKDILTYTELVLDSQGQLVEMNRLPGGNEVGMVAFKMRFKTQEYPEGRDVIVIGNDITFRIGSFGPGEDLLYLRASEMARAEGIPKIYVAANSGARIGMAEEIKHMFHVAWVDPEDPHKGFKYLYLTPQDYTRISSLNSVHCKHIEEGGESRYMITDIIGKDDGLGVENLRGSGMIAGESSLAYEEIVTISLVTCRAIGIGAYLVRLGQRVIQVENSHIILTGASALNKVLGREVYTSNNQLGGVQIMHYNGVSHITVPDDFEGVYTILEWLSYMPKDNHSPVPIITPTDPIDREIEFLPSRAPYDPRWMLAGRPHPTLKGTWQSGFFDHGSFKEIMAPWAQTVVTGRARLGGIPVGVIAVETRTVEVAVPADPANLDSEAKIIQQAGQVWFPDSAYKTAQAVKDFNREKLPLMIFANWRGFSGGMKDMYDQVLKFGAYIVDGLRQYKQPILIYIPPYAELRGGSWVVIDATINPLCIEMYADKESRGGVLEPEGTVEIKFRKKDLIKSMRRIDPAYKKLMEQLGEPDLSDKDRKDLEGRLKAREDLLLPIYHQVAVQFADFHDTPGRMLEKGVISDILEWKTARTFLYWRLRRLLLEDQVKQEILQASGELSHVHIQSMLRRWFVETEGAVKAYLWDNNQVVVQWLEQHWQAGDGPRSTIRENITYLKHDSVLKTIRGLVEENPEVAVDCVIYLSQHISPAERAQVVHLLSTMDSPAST
Method: Essentially, the enzyme activity is measured by quantifying the adenosine diphosphate (ADP) formed as a byproduct of the enzyme reactions using the ADP-Glo™ detection system from Promega. In this test, initially the adenosine triphosphate (ATP) not consumed in the enzyme reaction is converted quantitatively with an adenylate cyclase (“ADP-GLO reagent”) into cAMP, the adenylate cyclase is then stopped and (“kinase detection reagent”) the ADP formed is subsequently converted into ATP, which is converted in a luciferase-based reaction into a glow luminescence signal.
Typical concentrations were in the range of 2 ng/μl. […] The amount of light emitted was taken as a measure for the amount of ADP formed and thus for the enzyme activity of the hACC2.

[4] = molecular target: T1, ACC2; test: Human ACC2 enzyme assay A2 (HTRF ADP immunoassay); type: biochemical; settings: read-out: ACC 2 (=A2) IC50
Text: The ACC2 inhibition data were obtained using two different assays (A2 and B2)
Target sequence in this assay (O00763 39-2458 limits assumed): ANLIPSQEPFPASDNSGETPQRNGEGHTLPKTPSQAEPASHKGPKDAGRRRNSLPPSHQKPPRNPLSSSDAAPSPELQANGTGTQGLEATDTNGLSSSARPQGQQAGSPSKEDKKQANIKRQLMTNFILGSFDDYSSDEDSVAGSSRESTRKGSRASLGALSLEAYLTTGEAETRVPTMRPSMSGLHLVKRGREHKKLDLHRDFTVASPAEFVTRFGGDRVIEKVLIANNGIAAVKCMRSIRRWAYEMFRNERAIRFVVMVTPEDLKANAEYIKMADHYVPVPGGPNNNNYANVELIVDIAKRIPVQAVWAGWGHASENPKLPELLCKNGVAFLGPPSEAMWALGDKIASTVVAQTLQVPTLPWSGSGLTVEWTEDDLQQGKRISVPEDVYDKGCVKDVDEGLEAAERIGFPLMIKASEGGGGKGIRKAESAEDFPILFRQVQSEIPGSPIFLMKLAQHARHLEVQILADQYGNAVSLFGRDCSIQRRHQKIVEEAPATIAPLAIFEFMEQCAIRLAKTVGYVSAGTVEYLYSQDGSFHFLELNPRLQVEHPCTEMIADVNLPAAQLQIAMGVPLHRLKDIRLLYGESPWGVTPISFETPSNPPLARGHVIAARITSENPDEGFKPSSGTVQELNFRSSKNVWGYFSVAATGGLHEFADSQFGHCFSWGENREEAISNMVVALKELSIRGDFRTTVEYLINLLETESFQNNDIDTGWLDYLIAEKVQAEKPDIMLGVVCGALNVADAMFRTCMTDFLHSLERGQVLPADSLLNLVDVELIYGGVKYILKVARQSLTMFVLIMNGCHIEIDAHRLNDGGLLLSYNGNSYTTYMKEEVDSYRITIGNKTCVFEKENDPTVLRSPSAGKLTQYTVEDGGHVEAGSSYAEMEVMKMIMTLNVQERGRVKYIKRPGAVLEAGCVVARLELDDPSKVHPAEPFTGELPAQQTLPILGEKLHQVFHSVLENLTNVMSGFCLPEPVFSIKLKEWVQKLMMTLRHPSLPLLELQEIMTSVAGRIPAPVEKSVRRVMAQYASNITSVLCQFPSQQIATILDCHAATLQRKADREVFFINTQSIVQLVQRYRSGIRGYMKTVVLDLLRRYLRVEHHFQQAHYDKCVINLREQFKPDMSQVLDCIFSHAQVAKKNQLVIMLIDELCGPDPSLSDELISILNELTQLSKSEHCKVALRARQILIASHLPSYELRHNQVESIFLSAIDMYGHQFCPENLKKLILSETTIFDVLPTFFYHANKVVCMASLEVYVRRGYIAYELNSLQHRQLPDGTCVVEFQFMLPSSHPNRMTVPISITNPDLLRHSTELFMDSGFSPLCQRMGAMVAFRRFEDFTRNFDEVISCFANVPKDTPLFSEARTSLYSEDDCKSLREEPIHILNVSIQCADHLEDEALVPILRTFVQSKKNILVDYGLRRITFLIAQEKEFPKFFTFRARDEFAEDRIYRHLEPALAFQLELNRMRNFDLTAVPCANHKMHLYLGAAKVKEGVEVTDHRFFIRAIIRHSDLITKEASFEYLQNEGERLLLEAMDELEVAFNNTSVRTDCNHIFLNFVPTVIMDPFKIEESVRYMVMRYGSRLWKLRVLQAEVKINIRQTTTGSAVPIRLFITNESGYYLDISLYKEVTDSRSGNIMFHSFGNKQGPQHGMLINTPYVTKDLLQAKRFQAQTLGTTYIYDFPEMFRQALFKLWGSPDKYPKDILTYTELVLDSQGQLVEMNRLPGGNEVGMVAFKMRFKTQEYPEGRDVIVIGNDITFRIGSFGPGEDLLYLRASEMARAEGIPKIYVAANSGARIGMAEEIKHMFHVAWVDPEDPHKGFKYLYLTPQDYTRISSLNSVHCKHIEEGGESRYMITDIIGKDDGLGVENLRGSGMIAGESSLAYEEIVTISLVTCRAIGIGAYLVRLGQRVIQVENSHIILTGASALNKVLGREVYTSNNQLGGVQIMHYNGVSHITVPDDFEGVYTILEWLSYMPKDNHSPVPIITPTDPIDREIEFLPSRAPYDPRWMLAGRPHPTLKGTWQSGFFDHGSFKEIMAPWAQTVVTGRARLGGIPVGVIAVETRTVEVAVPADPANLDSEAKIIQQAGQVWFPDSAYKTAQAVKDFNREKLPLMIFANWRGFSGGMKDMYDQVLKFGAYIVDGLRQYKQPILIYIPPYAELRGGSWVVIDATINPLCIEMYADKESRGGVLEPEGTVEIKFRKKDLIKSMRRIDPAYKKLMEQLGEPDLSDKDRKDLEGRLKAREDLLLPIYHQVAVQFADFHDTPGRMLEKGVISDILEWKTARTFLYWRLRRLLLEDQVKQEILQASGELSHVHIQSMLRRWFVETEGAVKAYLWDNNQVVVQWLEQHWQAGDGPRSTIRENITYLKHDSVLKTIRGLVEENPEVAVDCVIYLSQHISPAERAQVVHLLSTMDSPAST

[5] = tested on: H460; test: Cell assay, tumour cell proliferation (CellTiter-Glo, 96 h); type: cell-based; settings: Homo sapiens, NCI-H460; 96-hour incubation
Method: (§1) In accordance with the invention, the substances were tested in cell-based assays for the ability of the substances of inhibiting tumour cell proliferation after a 96-hour incubation with the substance. Cell viability was tested using the CellTiter-Glo® luminescent cell viability assay (Promega). The cells were sown at a density of 2000-5000 cells/well (depending on the cell line) in 100 μl growth medium on 96-well microtitre plates. For each cell line examined, cells were sown on a separate plate to determine the luminescence at t=0 hours and t=96 hours. After overnight incubation at 37° C., the luminescence values for the t=0 samples were determined. The dose plates for the t=96 hours points in time were treated with substances diluted with growth medium. The cells were then incubated at 37° C. for 96 hours, and the luminescence values for the t=96 hours sample were then determined/For data analysis, the t=0 values were subtracted from the t=96 hour values for treated and untreated samples. The differences in luminescence in percent between substance-treated samples and control values were used to determine the growth inhibition in percent.
(§2) The substances were tested in the following cell lines which represent the stated indications in an exemplary manner: […]

[6] = tested on: BxPC3; test: as above; type: cell-based; settings: Homo sapiens, BXPC-3; 96-hour incubation
Method: as §1, §2

[7] = tested on: BT-20; test: as above; type: cell-based; settings: Homo sapiens, 96-hour incubation
Method: as §1, §2

[8] = tested on: SNU16; test: as above; type: cell-based; settings: Homo sapiens, SNU-16; 96-hour incubation
Method: as §1, §2

[9] = tested on: DAN-G; test: as above; type: cell-based; settings: 96-hour incubation
Method: as §1, §2

[10] = tested on: CAL-120; test: as above; type: cell-based; settings: Homo sapiens, 96-hour incubation
Method: as §1, §2

[11] = tested on: LNCaP; test: as above; type: cell-based; settings: Homo sapiens, 96-hour incubation
Method: as §1, §2

[12] = 7.5 mg/kg oral 2 qd, up to day 37 of the experiment

Compound: CO[C@H]1CC[C@]2(CC1)NC(=O)C(c1cc(-c3ccc(Cl)cc3)ccc1C)=C2O [Comparative Example C.1, (5s,8s)-3-(4′-chloro-4-methylbiphenyl-3-yl)-4-hydroxy-8-methoxy-1-azaspiro[4.5]dec-3-en-2-one]
- animals died [1, 12]: 1 of 10
- bodyweight loss [1, 12]: low bodyweight loss
- T/C value based on tumour area ([1]; 7.5 mg/kg oral, 27 days, 2 times per day (2 qd)): 0.86
- Deaths ([1]; continued with 10 mg/kg 2 qd up to day 43): 1 of 4
- Deaths ([1]; continued with 12.5 mg/kg 2 qd up to day 43): 4 of 5
- Deaths ([2]; 10 mg/kg oral, 14 days, 2 times a day): 1 of 3
- Deaths ([2]; 15 mg/kg oral, 21 days, once per day (Table 3)): 1 of 5
- Deaths ([2]; 20 mg/kg oral, 14 days, 2 times a day): 2 of 3
- Deaths ([2]; 20 mg/kg oral, 21 days, once per day (Table 3)): 1 of 5
- Deaths ([2]; 25 mg/kg oral, 21 days, once per day (Table 3)): 1 of 5
- Deaths ([2]; 30 mg/kg oral, 14 days, 2 times a day): 2 of 3
- MTD at 14 days ([2]; female, NMRI nu/nu, mouse, in vivo, po, 14-day treatment with 2 administrations per day): < 10 mg/kg
- MTD at 21 days ([2]; female, NMRI nu/nu, mouse, in vivo, po): < 15 mg/kg

- IC50 [3]: 2610 nM
- IC50 [4]: 1410 nM
Compound: COC1CCC2(C=C(c3cc(-c4ccc(Cl)c(Cl)c4)ccc3C)C(=O)N2)CC1 (stereo not shown) [Comparative Example C.2]

Compound: CO[C@H]1CC[C@]2(CC1)NC(=O)C(c1cc(-c3ccc(Cl)c(F)c3)ccc1C)=C2O [Compound A, (5s,8s)-3-(4′-chloro-3′-fluoro-4-methylbiphenyl-3-yl)-4-hydroxy-8-methoxy-1-azaspiro[4.5]dec-3-en-2-one]
- T/C (based on tumour area) ([1]; 20 mg/kg oral): 0.56 (ns)
- T/C (based on tumour weight) ([1]; 20 mg/kg oral): 0.42 (p = 0.003)
- T/C (based on tumour area) ([1]; 25 mg/kg oral): 0.51 (p < 0.05)
- T/C (based on tumour weight) ([1]; 25 mg/kg oral): 0.37 (p < 0.001)
- T/C (based on tumour area) ([1]; 30 mg/kg oral): 0.49 (p < 0.05)
- T/C (based on tumour weight) ([1]; 30 mg/kg oral): 0.35 (p < 0.001)
- T/C (based on tumour area) ([1]; 35 mg/kg oral): 0.44 (p < 0.05)
- T/C (based on tumour weight) ([1]; 35 mg/kg oral): 0.31 (p < 0.001)
- antitumoral efficacy (in words) ([1]; MCF-7 xenograft, summary statement): biologically meaningful and significant antitumoral effects
- Deaths ([2]; 20 mg/kg oral, 21 days, once per day (Table 4)): 0 of 5
- Deaths ([2]; 30 mg/kg oral, 21 days, once per day (Table 4)): 0 of 5
- Deaths ([2]; 40 mg/kg oral, 21 days, once per day (Table 4)): 1 of 5
- Deaths ([2]; 50 mg/kg oral, 21 days, once per day (Table 4)): 5 of 5
- Deaths ([2]; 60 mg/kg oral, 21 days, once per day (Table 4)): 5 of 5
- MTD at 21 days ([2]; female, NMRI nu/nu (nude), mouse, in vivo, po): < 40 mg/kg
- IC50 [5]: 201 nM
- IC50 [6]: 165 nM
- IC50 [7]: 187 nM
- IC50 [8]: 164 nM
- IC50 [9]: 184 nM
- IC50 [10]: 266 nM
- IC50 [11]: 334 nM
